The NIST ThermoML archive (doi:10.1016/j.jct.2010.04.027)
± gives the expanded uncertainty stated by the source.

Experiment: molar enthalpy of vaporization or sublimation
Details: 298.15 K; Crystal; Static calorimetry

| molar enthalpy | Compound |
| --- | --- |
| 25.5 ± 0.86 kcal/mol | O=C1c2ccccc2Cc2ccccc21 [9(10H)-anthracenone] |
| 22 ± 0.526 kcal/mol | c1ccc2c(c1)Cc1ccccc1O2 [10H-9-oxaanthracene] |
